Counter-ions that a name gives are not always drawn.
Test system: dentin postoperative hypersensitivity of human teeth
Assay: Clinical evaluation of post-operative dentin hypersensitivity in amalgam restoration patients
Format: in vivo
Procedure: Prior to anesthesia for pre-treatment evaluation and during the first week of treatment, the patients completed a questionnaire on pain. The patients were also evaluated post-operatively at one, three and six weeks. […] Only patients who had elected amalgam restoration procedures at UAB were employed for this study. Each tooth received a pre anesthesia evaluation for dentin postoperative hypersensitive with a cold stimulus and air jet for thermal testing. For cold-ice testing, plastic needle covers were filled with water and frozen in a refrigerator freezer for uses as the standardized cold stimulus. For air stimulation, the standardized baseline air jet from a syringe was used to direct a blast of air at the offending tooth and defective restoration. A randomized number chart was employed to select teeth for either the Copalite® varnish controls or teeth to be treated with the product of the present invention, potassium oxalate dihydrate. Following pre operative data collection and anesthesia, each tooth then received a routine intracoronal Class-I or Class-II cavity preparations. […] Following cavity preparation, rinsing and gentle air drying, the entire preparation surface was treated with the Copalite® varnish without modification or removal of the smear layer. Each control cavity was treated with three layers of copal varnish and each layer gently air dispersed with a chip syringe before the following Copalite® coat was applied. […] The patient was also evaluated for postoperative hypersensitivity at one, three and six weeks post-operatively. […] Thermal tests for ice and an air jet were administered and data recorded as for all of the previous tests. For base line data, each patient was evaluated for pain or sensitivity to cold and air prior to their treatment in this study. […] All data was analyzed by one-way Analysis of Variance (ANOVA) at the 0.05 level depending on the cell sizes in our contingency table of treatments versus responses. […] Responses from each of the patients were recorded on separate sheets and then tabulated onto the master sheet according to the identified criteria. The raw data were recorded from the McGill Visual Analog Scale (MVAS) evaluation sheets. Data were recorded from all patients experiencing none, some or severe post-operative hypersensitivity based on the patient responses at the various intervals, preoperative at 0 days, and post treatment […]. […] The date for each of the McGill VA scales were tabulated and recorded on a separate sheet with the patient's name and clinical record number-as a 10 centimeter straight line with no identifying marks along its axis.

O=C(O)C(=O)O [potassium oxalate dihydrate, oxalate acid potassium salt, dihydrate 99%]
patients pain free following the first procedure (MVA survey, post-operative): 88.5% | reduction in post-operative pain (collective MVA scale data) (McGill Visual Analog Scale, treated teeth): dramatic reduction | overall pain reduction for the cold discriminator measurement (cold stimulus, compared with Copalite): greater reduction | reduction in sensitivity / reported pain to the various stimuli (especially cold), in response to direct questioning (patients, post-operatively after amalgam restoration): 80.3%

Reference: patent US6582680B2, “Acid resistant film forming dental composition and method of use” (priority 1999, dated 2003)
